Patent publication US20210024507A1, “Compounds” (Step Pharma S.A.S., priority 2018, published 2021)

Key:
[1] = system: human CTPS1; test: RapidFire/MS-based enzyme selectivity assay, human CTPS1; assay type: biochemical; details: calculated from the CTPS1 and CTPS2 IC50 values
Method in brief: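 Full-length C-terminal FLAG-His-tagged human CTPS1 (1-591) was preincubated 10 minutes at 25° C. with compound in 50 mM HEPES pH 8.0, 20 mM MgCl2, 5 mM KCl, 1 mM DTT and 0.01% Tween-20. Substrate mix contained 0.3 mM ATP, 0.2 mM UTP, 0.07 mM GTP and 0.1 mM L-glutamine, and the reaction ran in its linear phase at 25° C. before formic acid stop. CTP was measured by RapidFire MS relative to ^13C9-^15N3-CTP, and IC50 came from percent inhibition curves.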

[2] = target: T1, human CTPS1 (Homo sapiens, UniProt P17812); test: Human CTPS1 enzyme inhibition (ADP-Glo Max assay); assay type: biochemical; details: human full length CTPS1, 25° C., read-out: CTPS1 (Human CTPS1 Enzyme Inhibition, IC50 grouped by potency range)
T1 construct: purchased Proteros biostructures GmbH
T1 sequence (P17812 1-591): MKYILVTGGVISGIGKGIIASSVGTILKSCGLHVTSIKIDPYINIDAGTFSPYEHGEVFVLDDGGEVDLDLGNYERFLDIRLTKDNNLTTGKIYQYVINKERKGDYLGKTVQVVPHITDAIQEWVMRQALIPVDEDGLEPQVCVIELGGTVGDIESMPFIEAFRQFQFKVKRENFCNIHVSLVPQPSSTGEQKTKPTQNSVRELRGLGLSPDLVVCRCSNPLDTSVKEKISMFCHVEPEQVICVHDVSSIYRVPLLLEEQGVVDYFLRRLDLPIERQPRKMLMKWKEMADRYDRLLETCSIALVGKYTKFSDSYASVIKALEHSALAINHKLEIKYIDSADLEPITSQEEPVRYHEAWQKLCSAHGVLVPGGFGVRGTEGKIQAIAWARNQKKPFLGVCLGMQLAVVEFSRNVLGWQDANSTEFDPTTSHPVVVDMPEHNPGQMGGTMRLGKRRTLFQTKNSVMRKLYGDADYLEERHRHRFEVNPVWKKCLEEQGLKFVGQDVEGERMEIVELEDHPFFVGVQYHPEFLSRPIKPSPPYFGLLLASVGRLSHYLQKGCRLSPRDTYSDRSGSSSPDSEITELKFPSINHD
Method in brief: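 Full-length C-terminal FLAG-His-tagged CTPS1, preincubated 10 min at 25 °C with compound in 50mM Tris pH 8.0, 10mM MgCl2, 0.01% Tween-20, 2mM L-cysteine. Started with ATP 0.31mM, GTP 0.034mM, UTP 0.48mM, L-glutamine 0.186mM in substrate mix, run within linear phase at 25 °C. ADP via ADP-Glo Max luminescence; IC50 from % inhibition curve.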

Row | SMILES | Selectivity (fold selectivity between CTPS1 and CTPS2) [1] | IC50 [2] [nM]
1 | CCOc1cncc(-c2ccc(NC(=O)C(F)(CC)c3ccnc(NS(=O)(=O)C4CC4)n3)nc2)n1 (racemic) [P112, 2-(2-(Cyclopropanesulfonamido)pyrimidin-4-yl)-N-(5-(6-ethoxypyrazin-2-yl)pyridin-2-yl)-2-fluorobutanamide] | ++ (>30-60 fold (++)) | ≤ 100
2 | CCC(C(=O)Nc1ccc(-c2cncc(OC(C)C)n2)cn1)c1ccnc(NS(=O)(=O)C2CC2)n1 (stereo not shown) [P89, 2-(2-(cyclopropanesulfonamido)pyrimidin-4-yl)-N-(5-(6-isopropoxypyrazin-2-yl)pyridin-2-yl)butanamide] | +++ (>60 fold (+++)) | ≤ 100
3 | CCC(C(=O)Nc1ccc(-c2cncc(OCC(F)(F)F)n2)cc1F)c1ccnc(NS(=O)(=O)C2CC2)n1 (stereo not shown) [P98, 2-(2-(cyclopropanesulfonamido)pyrimidin-4-yl)-N-(2-fluoro-4-(6-(2,2,2-trifluoroethoxy)pyrazin-2-yl)phenyl)butanamide] | +++ (>60 fold (+++)) | ≤ 100
4 | CCOc1cncc(-c2ccc(NC(=O)C(CC)c3ccnc(NS(=O)(=O)C4CC4)n3)nc2)n1 (stereo not shown) [P88, 2-(2-(cyclopropanesulfonamido)pyrimidin-4-yl)-N-(5-(6-ethoxypyrazin-2-yl)pyridin-2-yl)butanamide] | +++ (>60 fold (+++)) | ≤ 100

Now from value to compound:

Row | Selectivity (fold selectivity between CTPS1 and CTPS2) [1] | IC50 [2] [nM] | SMILES
5 | ++ (>30-60 fold (++)) | 100 to 1000 | CCOc1cncc(-c2ccc(NC(=O)C(CC)c3cccc(NS(=O)(=O)C4CC4)n3)cc2)n1 (stereo not shown) [P191, 2-(6-(cyclopropanesulfonamido)pyridin-2-yl)-N-(4-(6-ethoxypyrazin-2-yl)phenyl)butanamide]
6 | ++ (>30-60 fold (++)) | ≤ 100 | CCOc1cncc(-c2ccc(NC(=O)C(CC)c3cccc(NS(=O)(=O)C4CC4)n3)nc2)n1 (stereo not shown) [P188, 2-(6-(cyclopropanesulfonamido)pyridin-2-yl)-N-(5-(6-ethoxypyrazin-2-yl)pyridin-2-yl)butanamide]
7 | +++ (>60 fold (+++)) | ≤ 100 | CCOc1cncc(-c2ccc(NC(=O)C(C)(CCOC)c3cncc(NS(=O)(=O)C4CC4)n3)nc2)n1 (stereo not shown) [P198, 2-(6-(cyclopropanesulfonamido)pyrazin-2-yl)-N-(5-(6-ethoxypyrazin-2-yl)pyridin-2-yl)-4-methoxy-2-methylbutanamide]
8 | +++ (>60 fold (+++)) | ≤ 100 | CCOc1cncc(-c2ccc(NC(=O)C(CC)c3cncc(NS(=O)(=O)C4CC4)n3)cc2)n1 (stereo not shown) [P202, 2-(6-(cyclopropanesulfonamido)pyrazin-2-yl)-N-(4-(6-ethoxypyrazin-2-yl)phenyl)butanamide]
